Target: Carbonic anhydrase 2 (Homo sapiens, UniProt P00918)
Experiment: Inhibition of human carbonic anhydrase 2

NS(=O)(=O)NCc1csc2ccccc12
IC50: 110 µM
